Results taken from the CATMoS acute toxicity set (Mansouri et al. 2021).

Test: GHS categories as the set defines them, by LD50: 1 up to 5, 2 up to 50, 3 up to 300, 4 up to 2000, 5 above 2000 mg/kg
Settings: rat; in vivo; po

In the case of `CC1(C)S[C@@H]2[C@H](NC(=O)COc3ccccc3)C(=O)N2[C@H]1C(=O)O`, the GHS category is reported as 4.
`O=C(OCc1cncs1)Oc1ccc([N+](=O)[O-])cc1` showed a GHS category of 5.
`O=C=Nc1cccc2ccccc12` showed a GHS category of 5.
With `COc1ccc2c(c1)CCN(c1cccc(F)c1)C2c1cccc(F)c1` (stereo unspecified) the GHS category was 4.
Work on `CCC(O)OCc1c(Cl)ccc(Cl)c1Cl` (stereo unspecified) yielded a GHS category of 5.
Work on `CC(=CCc1c(O)c(Cl)c(C)c(C=O)c1O)CCC=C(C)[C@@H]1CC(=O)C(C)(C)O1` yielded a GHS category of 5.
For `Cc1cccc(C)c1N(CCCC(=O)O)C(=O)c1ccccc1Cl`, the GHS category was 5.
`COc1ccccc1OC(=O)Cc1ccc(C(=O)c2ccc(C)cc2)n1C` showed a GHS category of 4.
Work on `C=CC(C)(O)CCCC(C)CCCC(C)CCCC(C)C` (stereo unspecified) yielded a GHS category of 5.
Work on `CCCCCCCC/C=C\CCCCCCCCCCCCC` yielded a GHS category of 5.
With `CNC(=O)C(=NNc1ccc(Cl)c(Cl)c1)C(C)=O` the GHS category was 5.
In the case of `CCOc1nc2cccc(C(=O)OC(C)OC(=O)OC3CCCCC3)c2n1Cc1ccc(-c2ccccc2-c2nnn[nH]2)cc1` (stereo unspecified), the GHS category is reported as 5.
`COc1cc(OC)nc(NC(=O)NS(=O)(=O)c2ncccc2OCC(F)(F)F)n1` showed a GHS category of 5.
Work on `CC1CC(OC(=O)C(Oc2ccc(Cl)cc2)C(C)C)CC(C)(C)C1` (stereo unspecified) yielded a GHS category of 5.
In the case of `CN1COCN=C1N[N+](=O)[O-]`, the GHS category is reported as 4.
`COc1cnc(OC)n2nc(NS(=O)(=O)c3c(OCC(F)F)cccc3C(F)(F)F)nc12` showed a GHS category of 5.
`CC(=O)OC1CN(C)C(=O)N1c1cc(C(C)(C)C)on1` (stereo unspecified) showed a GHS category of 4.
`Cc1ccnc(N)c1` showed a GHS category of 4.
For `CC1COC(Cn2cncn2)(c2cc3cc(Cl)cc(Cl)c3o2)O1` (stereo unspecified), the GHS category was 4.
Work on `COC(=O)c1ccccc1CS(=O)(=O)NC(=O)Nc1nc(OC)cc(OC)n1` yielded a GHS category of 5.
`CC(CC(C)(C)C)CC(C)(C)CC(C)(C)C` (stereo unspecified) showed a GHS category of 5.
With `CC1=C(/C=C/C(C)=C/C=C/C(C)=C/C=C/C=C(C)/C=C/C=C(C)/C=C/C2=C(C)CCCC2(C)C)C(C)(C)CCC1` the GHS category was 5.
With `NP(N)(=O)Oc1ccccc1` the GHS category was 4.
For `COc1ccc(Br)cc1`, the GHS category was 4.
`O=C1NC(=O)c2ccccc21` showed a GHS category of 5.
Molecule `C=CC1CCC(C2CCC(CCC)CC2)CC1` (stereo unspecified) has a GHS category of 5.
For `NS(=O)(=O)c1ccccc1C(F)(F)F`, the GHS category was 4.
For `CN(C)Cn1c(=O)oc2ccc(Cl)cc21`, the GHS category was 4.
For `CCOC(=O)C(=O)Nc1cc(OCCOC)nc(C)n1`, the GHS category was 4.
`CC(=O)c1ccc2c(c1)OC(C)C(=O)N2C` (stereo unspecified) showed a GHS category of 5.
With `C=CC(=O)OCC1(CC)COCOC1` the GHS category was 5.
Molecule `CCCCC(=O)N(Cc1ccc(-c2ccccc2-c2nnn[nH]2)cc1)[C@@H](C(=O)O)C(C)C` has a GHS category of 5.
In the case of `CCOc1ccc(C(=O)NCc2ccc(OCCNC)cc2)cc1OCC`, the GHS category is reported as 5.
With `CCCCCCCCCCC[C@@H]1C[C@H](O)[C@H](CCCCCC)C(=O)O1` the GHS category was 5.
With `NC(=O)c1cn(CCO)nc1[N+](=O)[O-]` the GHS category was 5.
With `C=CC(=O)OCCCCOc1ccc(C(=O)Oc2ccc(OC(=O)c3ccc(OCCCCOC(=O)C=C)cc3)c(C)c2)cc1` the GHS category was 5.
Molecule `CCCCOC(=O)[C@@H](C)Oc1ccc(Oc2ccc(C#N)cc2F)cc1` has a GHS category of 5.
`COC(=O)c1ccc(C(=O)O)cc1[N+](=O)[O-]` showed a GHS category of 5.
`C=C(C)C(=O)OCCCCCCCCCCCC` gave a GHS category of 5.
With `COc1ccc(CCN2CCC(Nc3nc4ccccc4n3Cc3ccc(F)cc3)CC2)cc1` the GHS category was 5.
`COc1ccc2[nH]cc(CCNC(C)=O)c2c1` showed a GHS category of 5.
In the case of `Oc1c(-c2[nH]c3ccccc3c2O)[nH]c2ccccc12`, the GHS category is reported as 5.
`COc1cc(OC)nc(NC(=O)Oc2ccccc2)n1` showed a GHS category of 5.
In the case of `CC(C)=CCC/C(C)=C/COC=O`, the GHS category is reported as 5.
Work on `CCCCCC1COCCC1OC(C)=O` (stereo unspecified) yielded a GHS category of 5.
In the case of `CCC1(c2ccccc2O)NC(=O)NC1=O` (stereo unspecified), the GHS category is reported as 5.
With `CCOc1ccc(NC(=O)c2cc3ccccc3cc2O)cc1` the GHS category was 5.
Molecule `NCC[C@H](O)C(=O)N[C@@H]1C[C@H](N)[C@@H](O[C@H]2O[C@H](CN)CC[C@H]2N)[C@H](O)[C@H]1O[C@H]1O[C@H](CO)[C@@H](O)[C@H](N)[C@H]1O` has a GHS category of 5.
With `CCc1ccc(OCC=C(C)CCC2OC2(C)C)cc1` (stereo unspecified) the GHS category was 5.
With `CC(=O)c1c(C)c([N+](=O)[O-])c(C(C)(C)C)c([N+](=O)[O-])c1C` the GHS category was 5.
With `CCN(C)c1cc(=O)c2c(ccc3ccccc32)o1` the GHS category was 4.
Work on `Clc1ccc(Cn2ccnc2-c2ccccc2)cc1` yielded a GHS category of 4.
Work on `CCCN(CCC)c1c([N+](=O)[O-])cc(S(C)(=O)=O)cc1[N+](=O)[O-]` yielded a GHS category of 5.
Work on `CCO[Si](C)(CCCN)OCC` yielded a GHS category of 5.
In the case of `O=C1C[N+]([O-])=C(c2ccccc2)c2cc(Cl)ccc2N1`, the GHS category is reported as 5.
With `CC(C)OC(=O)c1cc(C(=O)OC(C)C)cc([N+](=O)[O-])c1` the GHS category was 5.
Molecule `Cc1ccccc1N1C(=O)c2cc(S(N)(=O)=O)c(Cl)cc2NC1C` (stereo unspecified) has a GHS category of 5.
For `c1cnn(-c2cc(-n3cccn3)ncn2)c1`, the GHS category was 5.
`CCCCCCCCCCC=O` showed a GHS category of 5.
For `COc1ccc2[nH]c(C)c(CC(=O)OCC(=O)O)c2c1`, the GHS category was 5.
Molecule `O=[N+]([O-])c1cc2c(Nc3ccc(F)c(Cl)c3)ncnc2cc1S(=O)(=O)c1ccccc1` has a GHS category of 5.
`COc1n[nH]c(=O)n1C` gave a GHS category of 5.
`CCCCCCCCCCCCCCCCCNP1(=S)OCc2cc([N+](=O)[O-])ccc2O1` (stereo unspecified) gave a GHS category of 3.
`CC(C)=CCCC(C)CCOCC=O` (stereo unspecified) gave a GHS category of 5.
For `CO/N=C(/C(=O)N[C@@H]1C(=O)N2C(C(=O)OCOC(=O)C(C)(C)C)=C(C)CS[C@H]12)c1csc(N)n1`, the GHS category was 5.
`NS(=O)(=O)c1cc(C(=O)NN2C[C@H]3[C@H]4CCC(C4)[C@H]3C2)ccc1Cl` gave a GHS category of 5.
With `Brc1cc(Br)c(Oc2nc(Oc3c(Br)cc(Br)cc3Br)nc(Oc3c(Br)cc(Br)cc3Br)n2)c(Br)c1` the GHS category was 5.
Molecule `CCSCCO` has a GHS category of 5.
Work on `Cc1cccc(N(C)C(=S)Oc2ccc3c(c2)C2CCC3C2)c1` (stereo unspecified) yielded a GHS category of 4.
With `CC(C)(C)NC(=O)[C@@H]1CN(Cc2cccnc2)CCN1C[C@@H](O)C[C@@H](Cc1ccccc1)C(=O)N[C@H]1c2ccccc2C[C@H]1O` the GHS category was 5.
`CC(C)c1cc(C(C)C)c([N+](=O)[O-])c(C(C)C)c1[N+](=O)[O-]` showed a GHS category of 5.
Molecule `O=C1COc2cc(C(=O)c3ccccc3)ccc2N1` has a GHS category of 5.
Work on `CC1C(C)(C)C2=C(C3OCOCC3CC2)C1(C)C` (stereo unspecified) yielded a GHS category of 5.
`S=C(SSSSSSC(=S)N1CCCCC1)N1CCCCC1` showed a GHS category of 5.
For `O=S(=O)(O)c1ccc2c(ccc3nn(-c4ccc(C=Cc5ccc(-n6cncn6)cc5S(=O)(=O)O)c(S(=O)(=O)O)c4)nc32)c1`, the GHS category was 5.
For `CCC(COC(=O)c1cc(OC)c(OC)c(OC)c1)(c1ccccc1)N(C)C` (stereo unspecified), the GHS category was 5.
Work on `CN(C)[C@@H]1C(O)=C(C(N)=O)C(=O)[C@@]2(O)C(O)=C3C(=O)c4c(O)ccc(Cl)c4[C@@H](O)[C@H]3C[C@@H]12` yielded a GHS category of 5.
Molecule `COCCCNc1nc(NC(C)C)nc(SC)n1` has a GHS category of 5.
`CN1CC(c2ccno2)CC2c3cccc4[nH]cc(c34)CC21` (stereo unspecified) gave a GHS category of 4.
`Cc1cccc2ncc(C(=O)NCC(C)(C)C)c(=O)n12` showed a GHS category of 3.
`CCCCCCOc1ccc(-c2ccc(C#N)cc2)cc1` gave a GHS category of 5.
